Each structure is given as a SMILES string. Non-standard residues stand in square brackets, D forms with d. Residues, ends and D or L forms follow the SMILES beside them. *: point of attachment. DOTA = O=C(O)CN1CCN(CC(=O)O)CCN(CC(=O)*)CCN(CC(=O)O)CC1; EuK = O=C(O)CC[C@H](NC(=O)N[C@@H](CCCCN*)C(=O)O)C(=O)O; 2Nal = N[C@@H](Cc1ccc2ccccc2c1)C(=O)O; Trx = NC[C@H]1CC[C@H](C(=O)O)CC1

Data set [1] is described as follows: Partition coefficient (logD), n-octanol/PBS pH 7.4. Format: physicochemical. The note with it: 68Ga-labeled compounds, mean ± SD, read-out: Partition Coefficient [logDoctanol/PBS]. On the procedure: To determine the lipophilicity expressed as distribution coefficient (logD), a two-phase system of n-octanol (500 µl) and phosphate buffered saline (PBS) (490 µl) at pH 7.4 was used (n = 4). Compounds were radiolabeled with [^68Ga]Ga^3+ and the mixture diluted to a concentration of 0.25 µM in PBS. 10 µl of the 0.25 µM dilution were added to the n-octanol / PBS mixture. After extensive mixing, the 2-phase system was centrifuged for 10 min at 14,000 rpm and 4 °C. Two samples from each phase (100 µl) were taken and measured in a γ-gamma counter (PerkinElmer, Waltham, USA). […] The data is presented as the mean value with the standard deviation (SD).

Another data set is described as follows: in vivo. The note with it: male, BALB/c nu/nu, mouse, iv, 500 pmol, total radioactivity.

Turning to `O=C(O)CC[C@H](NC(=O)N[C@@H](CCCCNC(=O)[C@H](Cc1c[nH]cn1)NC(=O)[C@H](Cc1c[nH]cn1)NC(=O)[C@H](Cc1c[nH]cn1)NC(=O)[C@H](Cc1ccc2ccccc2c1)NC(=O)[C@H]1CC[C@H](CNC(=O)CN2CCN(CC(=O)O)CCN(CC(=O)O)CCN(CC(=O)O)CC2)CC1)C(=O)O)C(=O)O` [PS9, EuK-H3-NaI-ChX-DOTA] ({DOTA-Trx}-[2Nal]HHH-EuK), in data set [1], the logD was -3.2 ± 0.1. The SUV at 1 h in the data set “in vivo” (SUV kidneys) was found to be 0.98 ± 0.09 SUV; in the data set “in vivo” (SUV muscle), 0.082 ± 0.002 SUV; in the data set “in vivo” (SUV tumor) it was 0.21 ± 0.05 SUV. Moreover, the SUV at 2 h in the data set “in vivo” (SUV kidneys) was found to be 0.74 ± 0.09 SUV; in “in vivo” (SUV muscle), 0.07 ± 0.03 SUV; in “in vivo” (SUV tumor), 0.12 ± 0.03 SUV.
For the compound `O=C(O)CC[C@H](NC(=O)N[C@@H](CCCCNC(=O)[C@H](Cc1ccc2ccccc2c1)NC(=O)[C@H](CCC(=O)O)NC(=O)[C@H](CCC(=O)O)NC(=O)[C@H](CCC(=O)O)NC(=O)[C@H]1CC[C@H](CNC(=O)CN2CCN(CC(=O)O)CCN(CC(=O)O)CCN(CC(=O)O)CC2)CC1)C(=O)O)C(=O)O` [PS7, EuK-NaI-E3-ChX-DOTA] ({DOTA-Trx}-EEE[2Nal]-EuK), the logD in data set [1] was -3.3 ± 0.1. For the same compound, the SUV at 1 h amounted to 1.6 ± 0.12 SUV in the data set “in vivo” (SUV kidneys), 0.09 ± 0.01 SUV in “in vivo” (SUV muscle) and 0.71 ± 0.05 SUV in the data set “in vivo” (SUV tumor). Besides, the values for the SUV at 2 h in the data set “in vivo” (SUV kidneys), in the data set “in vivo” (SUV muscle) and in “in vivo” (SUV tumor) were 0.59 ± 0.06 SUV, 0.12 ± 0.02 SUV and 0.56 ± 0.08 SUV, respectively.
As to `O=C(O)CC[C@H](NC(=O)N[C@@H](CCCCNC(=O)[C@H](CCC(=O)O)NC(=O)[C@H](CCC(=O)O)NC(=O)[C@H](CCC(=O)O)NC(=O)[C@H](Cc1ccc2ccccc2c1)NC(=O)[C@H]1CC[C@H](CNC(=O)CN2CCN(CC(=O)O)CCN(CC(=O)O)CCN(CC(=O)O)CC2)CC1)C(=O)O)C(=O)O` [[^68Ga]Ga-PS6, metal not drawn] ({DOTA-Trx}-[2Nal]EEE-EuK), in the data set “in vivo”, the tissue to tissue ratio at 1 h was found to be 0.44 ± 0.15 and the tissue to tissue ratio at 2 h is 2.15 ± 0.22.
In the case of `O=C(O)CC[C@H](NC(=O)N[C@@H](CCCCNC(=O)[C@H](Cc1ccc2ccccc2c1)NC(=O)[C@H](Cc1c[nH]cn1)NC(=O)[C@H](Cc1c[nH]cn1)NC(=O)[C@H](Cc1c[nH]cn1)NC(=O)[C@H]1CC[C@H](CNC(=O)CN2CCN(CC(=O)O)CCN(CC(=O)O)CCN(CC(=O)O)CC2)CC1)C(=O)O)C(=O)O` [PS10, EuK-NaI-H3-ChX-DOTA] ({DOTA-Trx}-HHH[2Nal]-EuK), the logD in data set [1] was -3.7 ± 0.6. Moreover, the figures for the SUV at 1 h in the data set “in vivo” (SUV kidneys), in “in vivo” (SUV muscle) and in “in vivo” (SUV tumor) were 8.13 ± 1.31 SUV, 0.21 ± 0.03 SUV and 0.65 ± 0.04 SUV, respectively. The SUV at 2 h in the data set “in vivo” (SUV kidneys) was 1.09 ± 0.06 SUV; in the data set “in vivo” (SUV muscle), 0.06 ± 0.02 SUV; in the data set “in vivo” (SUV tumor), 0.37 ± 0.05 SUV.
As for `O=C(O)CC[C@H](NC(=O)N[C@@H](CCCCNC(=O)[C@H](CCC(=O)O)NC(=O)[C@H](CCC(=O)O)NC(=O)[C@H](CCC(=O)O)NC(=O)[C@H](Cc1ccc2ccccc2c1)NC(=O)[C@H]1CC[C@H](CNC(=O)CN2CCN(CC(=O)O)CCN(CC(=O)O)CCN(CC(=O)O)CC2)CC1)C(=O)O)C(=O)O` [PS6, EuK-E3-NaI-ChX-DOTA] ({DOTA-Trx}-[2Nal]EEE-EuK), in data set [1], the logD was -3.1 ± 0.3. The SUV at 1 h in the data set “in vivo” (SUV kidneys) was 1.53 ± 0.08 SUV; in the data set “in vivo” (SUV muscle), 0.11 ± 0.02 SUV; in the data set “in vivo” (SUV tumor), 0.69 ± 0.07 SUV. Further, the SUV at 2 h in the data set “in vivo” (SUV kidneys) was 0.4 ± 0.05 SUV; in “in vivo” (SUV muscle) it was 0.11 ± 0.02 SUV; in the data set “in vivo” (SUV tumor) it was 0.85 ± 0.08 SUV.
Turning to `O=C(O)CC[C@H](NC(=O)N[C@@H](CCCCNC(=O)[C@H](Cc1ccc2ccccc2c1)NC(=O)[C@H]1CC[C@H](CNC(=O)[C@H](CCC(=O)O)NC(=O)[C@H](CCC(=O)O)NC(=O)[C@H](CCC(=O)O)NC(=O)CN2CCN(CC(=O)O)CCN(CC(=O)O)CCN(CC(=O)O)CC2)CC1)C(=O)O)C(=O)O` [PS8, EuK-NaI-ChX-E3-DOTA] ({DOTA}-EEE[Trx][2Nal]-EuK), the logD in data set [1] was -3 ± 0.1. Also, the results for the SUV at 1 h in the data set “in vivo” (SUV kidneys), in the data set “in vivo” (SUV muscle) and in “in vivo” (SUV tumor) were 3.89 ± 0.65 SUV, 0.08 ± 0.02 SUV and 1.32 ± 0.08 SUV, respectively. Besides, the SUV at 2 h was determined as 2.7 ± 0.89 SUV in the data set “in vivo” (SUV kidneys), 0.11 ± 0.02 SUV in “in vivo” (SUV muscle) and 0.86 ± 0.39 SUV in the data set “in vivo” (SUV tumor).

Source of the values: paper PMC12775819, “Optimizing PSMA-617-based inhibitors through charged linker modifications: Insights into structure-activity relationships” (Theranostics, 2026).
